Results as given in patent publication US20080194546A1, “Pyrido-, Pyrazo- and Pyrimido-Pyrimidine Derivatives as mTOR Inhibitors” (KuDOS Pharmaceuticals Limited, priority 2005, published 2008).

What was measured:
T47D cells = assay: Cell Proliferation Assay (GI50), sulforhodamine B (SRB) assay; type: cell-based; settings: for GI50: Homo sapiens, 120 hours, SRB
Protocol: Cell growth was assessed using the sulforhodamine B (SRB) assay (A). T47D (ECACC, 85102201) cells were routinely passaged in RPMI (Invitrogen, 42401018) plus 10% foetal calf serum (FCS), 1% L-glutamine (Gibco BRL, 25030) to a confluence not greater than 80%. To undertake the assay, T47D cells were seeded at 2.5×10^3 cells/well in […] RPMI plus 10% foetal calf serum, 1% L-glutamine in 96 well plates (Costar, 3904) and incubated at 37° C. (+5% CO2) in a humidified incubator. Once the cells had fully adhered (typically following 4-5 hours incubation) the plate was removed from the incubator and 10 μL of the diluent added to the control wells (A1-12 and B1-12). Compound was prepared in a six point semi-log dilution at 10× the final concentration required e.g. for a 6 point range of 30 μM to 100 nM in semi-log steps dilution started at 300 μM in stock plate. Dosing was completed by addition of 10 μL of compound at highest concentration to C1-12 through to the lowest concentration in H1-12. The plates were then incubated for 120 hours prior to SRB analysis.
Upon completion of incubation, media was removed and the cells fixed with […] of ice cold 10% (w/v) trichloroacetic acid. The plates were incubated at 4° C. for 20 minutes and then washed four times with water. Each well of cells was then stained with 100 μl of 0.4% (w/v) SRB (Sulforhodamine B, Sigma, Poole, Dorset, UK, Catalogue number S-9012) in 1% acetic acid for 20 minutes before washing four times with 1% acetic acid. Plates were then dried for 2 hours at room temperature. The dye from the stained cells was solubilized by the addition of 100 μl of 10 mM Tris Base into each well. Plates were gently shaken and left at room temperature for 30 minutes before measuring the optical density at 564 nm on a Microquant microtiter plate reader. The concentration of inhibitor eliciting a 50% reduction in growth (GI50) was determined by analysis of staining intensity of the treated cells as a percentage of the vehicle control wells using Excelfit software.
(A) Skehan, P., Storung, R., Scudiero, R., Monks, A., McMahon, J., Vistica, D., Warren, J. T., Bokesch, H., Kenny, S. and Boyd, M. R. (1990) New […] cytotoxicity assay for anticancer-drug screening. J. Natl. Cancer Inst. 82, 1107-1112.

mTOR = biological target: T1, mTOR (Homo sapiens, UniProt P42345); assay: Biological Assay: mTOR enzyme activity, mTOR immunoprecipitated from HeLa cell cytoplasmic extract, recombinant PHAS-1 as substrate; type: biochemical; settings: Biological Assay; for IC50: upper bounds, read-out: IC50 values against mTOR
T1 construct: mTOR protein was isolated from HeLa cell cytoplasmic extract by immunoprecipitation; endogenous in cells; host or cells: HeLa cell cytoplasmic extract (immunoprecipitate)

| Compound | GI50 (T47D cells) [µM] | IC50 (mTOR) [µM] | GI50 (T47D cells; upper bounds) [µM] | GI50 of Comparative Examples compared to the corresponding Examples (T47D cells; comparison in words) | IC50 of Comparative Examples compared to the corresponding Examples (mTOR; comparison in words) |
| --- | --- | --- | --- | --- | --- |
| COc1ccc(-c2ccc3c(N4CCOCC4)nc(N4C[C@@H](C)O[C@@H](C)C4)nc3n2)cc1CN[C@H](CO)CCSC [Example 8bd] |  | < 1 | < 0.3 |  |  |
| COc1ccc(-c2ccc3c(N4CCOCC4)nc(N4C[C@@H](C)O[C@@H](C)C4)nc3n2)cc1CNC(C)CC(C)C (stereo partly shown) [Example 8t] |  | < 1 | < 0.3 |  |  |
| COc1ccc(-c2ccc3c(N4CCOCC4)nc(N4C[C@@H](C)O[C@@H](C)C4)nc3n2)cc1CNC1CCC(C)CC1 (stereo partly shown) [Example 8p] | < 1 | < 1 |  |  |  |
| COc1ccc(-c2ccc3c(N4CCOCC4)nc(N4C[C@@H](C)O[C@@H](C)C4)nc3n2)cc1CNCCC(C)(C)C [Example 8q] | < 1 | < 1 |  |  |  |
| COc1ccc(-c2ccc3c(N4CCOCC4)nc(N4C[C@@H](C)O[C@@H](C)C4)nc3n2)cc1CNC1CCCCC1C (stereo partly shown) [Example 8w] | < 1 | < 1 |  |  |  |
| COc1ccc(-c2ccc3c(N4CCOCC4)nc(N4C[C@@H](C)O[C@@H](C)C4)nc3n2)cc1CNc1ccc(N2CCOCC2)cc1 [Example 8ay] |  | < 1 | < 0.3 |  |  |
| COc1ccc(-c2ccc3c(N4CCOCC4)nc(N4CCOC[C@@H]4C)nc3n2)cc1CO [Comparative Example 1a, reference compound] |  |  |  | GI50 Comparative Example 1a>GI50 Example 11a | IC50 Comparative Example 1a>IC50 Example 11a |
| COc1ccc(-c2ccc3c(N4CCOCC4)nc(N4C[C@@H](C)O[C@@H](C)C4)nc3n2)cc1CNCc1cccc([N+](=O)[O-])c1 [Example 8at] |  | < 1 | < 0.3 |  |  |
| C[C@@H]1CN(c2nc(N3CCOCC3)c3ccc(-c4ccco4)nc3n2)C[C@H](C)O1 [Example 1r] | 0.232 | < 1 |  |  |  |
| COc1ccc(-c2ccc3c(N4CCOCC4)nc(N4C[C@@H](C)O[C@@H](C)C4)nc3n2)cc1CNC(=S)N1CCCCC1 [Example 8am] |  | < 1 | < 0.3 |  |  |
| CCOCCCNCc1cc(-c2ccc3c(N4CCOCC4)nc(N4C[C@@H](C)O[C@@H](C)C4)nc3n2)ccc1OC [Example 8s] | < 1 | < 1 |  |  |  |
| COc1ccc(-c2ccc3c(N4CCOCC4)nc(N4C[C@@H](C)O[C@@H](C)C4)nc3n2)cc1CN[C@H](C)c1ccc([N+](=O)[O-])cc1 [Example 8au] |  | < 1 | < 0.3 |  |  |
| COc1ccc(-c2ccc3c(N4CCOCC4)nc(N4C[C@@H](C)O[C@@H](C)C4)nc3n2)cc1CNCCCCCNC(=O)OC(C)(C)C [Example 8as] |  | < 0.1 | < 0.3 |  |  |
| COC(=O)[C@H](NCc1cc(-c2ccc3c(N4CCOCC4)nc(N4C[C@@H](C)O[C@@H](C)C4)nc3n2)ccc1OC)c1ccccc1 [Example 8ao] |  | < 1 | < 0.3 |  |  |
| COc1ccc(-c2ccc3c(N4CCOCC4)nc(N4C[C@@H](C)O[C@@H](C)C4)nc3n2)cc1CNCCC1CCCN1C (stereo partly shown) [Example 8ai] |  | < 0.1 | < 0.3 |  |  |
| COc1ccc(-c2ccc3c(N4CCOCC4)nc(N4C[C@@H](C)O[C@@H](C)C4)nc3n2)cc1CNCC1CCCCC1O (stereo partly shown) [Example 8aa] | < 1 | < 0.1 |  |  |  |
| COc1ccc(-c2ccc3c(N4CCOCC4)nc(N4C[C@@H](C)O[C@@H](C)C4)nc3n2)cc1CNCC(C)C [Example 8u] |  | < 1 | < 0.3 |  |  |
| COc1ccc(-c2ccc3c(N4CCOCC4)nc(N4C[C@@H](C)O[C@@H](C)C4)nc3n2)cc1CNC(c1ccccc1)c1ccccc1 [Example 8az] |  | < 1 | < 0.3 |  |  |
| COCCNCc1cc(-c2ccc3c(N4CCOCC4)nc(N4C[C@@H](C)O[C@@H](C)C4)nc3n2)ccc1OC [Example 8v] | < 1 | < 1 |  |  |  |
| COc1ccc(-c2ccc3c(N4CCOCC4)nc(N4C[C@@H](C)O[C@@H](C)C4)nc3n2)cc1CNCC1CC1 [Example 8g] |  | < 0.1 | < 0.3 |  |  |
| COc1ccc(-c2ccc3c(N4CCOCC4)nc(N4C[C@@H](C)O[C@@H](C)C4)nc3n2)cc1CNCCCc1ccccc1 [Example 8bc] |  | < 0.1 | < 0.3 |  |  |
| COc1ccc(-c2ccc3c(N4CCOCC4)nc(N4C[C@@H](C)O[C@@H](C)C4)nc3n2)cc1CNc1ccc(OCc2ccccc2)cc1 [Example 8ba] |  | < 1 | < 0.3 |  |  |
| C#CC1(NCc2cc(-c3ccc4c(N5CCOCC5)nc(N5C[C@@H](C)O[C@@H](C)C5)nc4n3)ccc2OC)CCCCC1 [Example 8x] | < 1 | < 1 |  |  |  |
| COc1ccc(-c2ccc3c(N4CCOCC4)nc(N4C[C@@H](C)O[C@@H](C)C4)nc3n2)cc1CNC1CC1 [Example 8b] |  | < 0.1 | < 0.3 |  |  |
| CCOC(=O)C1CCCCC1NCc1cc(-c2ccc3c(N4CCOCC4)nc(N4C[C@@H](C)O[C@@H](C)C4)nc3n2)ccc1OC (stereo partly shown) [Example 8ac] | < 1 | < 0.1 |  |  |  |
| COc1ccc(-c2ccc3c(N4CCOCC4)nc(N4C[C@@H](C)O[C@@H](C)C4)nc3n2)cc1CNCc1ccc(F)cc1 [Example 8ah] |  | < 0.1 | < 0.3 |  |  |
| COc1ccc(-c2ccc3c(N4CCOCC4)nc(N4C[C@@H](C)O[C@@H](C)C4)nc3n2)cc1CNCCc1cccs1 [Example 8an] |  | < 0.1 | < 0.3 |  |  |
| COc1ccc(-c2ccc3c(N4CCOCC4)nc(N4C[C@@H](C)O[C@@H](C)C4)nc3n2)cc1CNC(Cc1ccc(O)cc1)C(=O)O (stereo partly shown) [Example 8ar] |  | < 0.1 | < 0.3 |  |  |
| COc1ccc(-c2ccc3c(N4CCOCC4)nc(N4C[C@@H](C)O[C@@H](C)C4)nc3n2)cc1CNCCSCc1ccc(CN(C)C)o1 [Example 8ae] |  | < 1 | < 0.3 |  |  |
| COc1ccc(-c2ccc3c(N4CCOCC4)nc(N4C[C@@H](C)O[C@@H](C)C4)nc3n2)cc1CNC1CCc2ccccc21 (stereo partly shown) [Example 8av] |  | < 0.1 | < 0.3 |  |  |

Now from value to compound, other results behind:

| GI50 (T47D cells) [µM] | IC50 (mTOR) [µM] | GI50 (T47D cells; upper bounds) [µM] | Compound | GI50 of Comparative Examples compared to the corresponding Examples (T47D cells; comparison in words) | IC50 of Comparative Examples compared to the corresponding Examples (mTOR; comparison in words) |
| --- | --- | --- | --- | --- | --- |
| < 1 | < 0.1 |  | COc1ccc(-c2ccc3c(N4CCOCC4)nc(N4C[C@@H](C)O[C@@H](C)C4)nc3n2)cc1CNC1CCCCC1 [Example 8o] |  |  |
|  | < 0.1 | < 0.3 | COc1ccc(-c2ccc3c(N4CCOCC4)nc(N4C[C@@H](C)O[C@@H](C)C4)nc3n2)cc1CNC1CCOCC1 [Example 8i] |  |  |
|  | < 0.1 | < 0.3 | COc1ccc(-c2ccc3c(N4CCOCC4)nc(N4C[C@@H](C)O[C@@H](C)C4)nc3n2)cc1CNCC1CCCO1 (stereo partly shown) [Example 8aj] |  |  |
|  | < 0.1 | < 0.3 | C[C@H]1CCCCN1c1nc(N2CCOCC2)c2ccc(-c3ccc(Cl)cc3)nc2n1 [Example 1g] |  |  |
| < 1 | < 0.1 |  | COc1ccc(-c2ccc3c(N4CCOCC4)nc(N4C[C@@H](C)O[C@@H](C)C4)nc3n2)cc1CNCCc1cnc[nH]1 [Example 8c] |  |  |
|  | < 0.1 | < 0.3 | COc1ccc(-c2ccc3c(N4CCOCC4)nc(N4C[C@@H](C)O[C@@H](C)C4)nc3n2)cc1CNC1CCCC1 [Example 8k] |  |  |
|  | < 0.1 | < 0.3 | COc1ccc(-c2ccc3c(N4CCOCC4)nc(N4C[C@@H](C)O[C@@H](C)C4)nc3n2)cc1CNCc1ccc2c(c1)OCO2 [Example 8bg] |  |  |
|  | < 0.1 | < 0.3 | COc1ccc(-c2ccc3c(N4CCOCC4)nc(N4C[C@@H](C)O[C@@H](C)C4)nc3n2)cc1CNCCSCCO [Example 8ad] |  |  |
| < 1 | < 0.1 |  | COc1ccc(-c2ccc3c(N4CCOCC4)nc(N4C[C@@H](C)O[C@@H](C)C4)nc3n2)cc1CNCCC(C)C [Example 8m] |  |  |
|  | < 0.1 | < 0.3 | COC[C@H](Cc1ccccc1)NCc1cc(-c2ccc3c(N4CCOCC4)nc(N4C[C@@H](C)O[C@@H](C)C4)nc3n2)ccc1OC [Example 8be] |  |  |
|  | < 0.1 | < 0.3 | CCCCNCc1cc(-c2ccc3c(N4CCOCC4)nc(N4C[C@@H](C)O[C@@H](C)C4)nc3n2)ccc1OC [Example 8l] |  |  |
| < 1 | < 0.1 |  | COc1ccc(-c2ccc3c(N4CCOCC4)nc(N4C[C@@H](C)O[C@@H](C)C4)nc3n2)cc1CNC1CCCCCCC1 [Example 8n] |  |  |
|  | < 0.1 | < 0.3 | CCSCCNCc1cc(-c2ccc3c(N4CCOCC4)nc(N4C[C@@H](C)O[C@@H](C)C4)nc3n2)ccc1OC [Example 8ak] |  |  |
| < 1 | < 0.1 |  | COc1ccc(CCNCc2cc(-c3ccc4c(N5CCOCC5)nc(N5C[C@@H](C)O[C@@H](C)C5)nc4n3)ccc2OC)cc1 [Example 8e] |  |  |
